Experimental data published in the NIST ThermoML archive (doi:10.1021/je500381c).

Experiment: xn = mol fraction of the nth substance listed
Conditions: for mass density / viscosity: 100 kPa, Liquid; for mass density: Vibrating tube method; for surface tension liquid-gas: Drop volume

CCC12CC3CC(CC(C3)C1)C2 [1-ethyladamantane] + OCC1CCCCC1
Conditions | mass density, 293.15 K [kg/m3] | mass density, 298.15 K [kg/m3] | mass density, 303.15 K [kg/m3] | mass density, 308.15 K [kg/m3] | mass density, 313.15 K [kg/m3] | surface tension liquid-gas, 298.15 K [mN/m] | viscosity, 293.15 K [mPa·s] | viscosity, 298.15 K [mPa·s] | viscosity, 303.15 K [mPa·s] | viscosity, 308.15 K [mPa·s]
x2 = 0 | 937.11 | 933.58 | 929.99 | 926.4 | 922.81 | 29.87 | 6.371 | 5.565 | 4.903 | 4.348
x2 = 0.1 | 936.13 | 932.5 | 928.84 | 925.16 | 921.48 | 30.21 | 6.695 | 5.776 | 5.033 | 4.417
x2 = 0.2002 | 935.23 | 931.58 | 927.89 | 924.2 | 920.49 | 30.84 | 7.433 | 6.348 | 5.484 | 4.772
x2 = 0.2997 | 934.37 | 930.72 | 927.06 | 923.39 | 919.69 | 30.99 | 8.368 | 7.083 | 6.058 | 5.224
x2 = 0.3999 | 933.76 | 930.09 | 926.4 | 922.68 | 918.95 | 31.23 | 9.674 | 8.081 | 6.832 | 5.833
x2 = 0.4998 | 933.1 | 929.43 | 925.74 | 922.03 | – | 31.51 | 11.54 | 9.483 | 7.675 | 6.657
x2 = 0.5989 | 932.54 | 928.87 | 925.17 | 921.45 | – | 31.86 | 14.09 | 11.38 | 9.337 | 7.748
x2 = 0.7001 | 931.93 | 928.31 | 924.63 | 920.92 | – | 31.98 | 17.67 | 14.04 | 11.31 | 9.236
x2 = 0.8023 | 931.24 | 927.68 | 924.04 | 920.38 | – | 32.1 | 23.66 | 18.53 | 14.75 | 11.88
x2 = 0.8996 | 930.57 | 927 | 923.4 | 919.77 | – | 32.21 | 29.61 | 22.86 | 18.07 | 14.39
